Tested on: skin and eyes
Settings: aqueous solution, pH=3.0

- sting or burning when applied to freshly shaven skin: stings or burns
SMILES: O=C(O)CO [glycolic acid]

From patent US20100129465A1, “Methods and Compositions Related to Acne Treatment” (priority 2008, published 2010)
